Test results: BindingDB's records for doi:10.1021/acs.jmedchem.9b01392 (AstraZeneca, 2020)

Target: T1, Tyrosine-protein kinase JAK3 (Homo sapiens, UniProt P52333)
T1 sequence (P52333 whole entry): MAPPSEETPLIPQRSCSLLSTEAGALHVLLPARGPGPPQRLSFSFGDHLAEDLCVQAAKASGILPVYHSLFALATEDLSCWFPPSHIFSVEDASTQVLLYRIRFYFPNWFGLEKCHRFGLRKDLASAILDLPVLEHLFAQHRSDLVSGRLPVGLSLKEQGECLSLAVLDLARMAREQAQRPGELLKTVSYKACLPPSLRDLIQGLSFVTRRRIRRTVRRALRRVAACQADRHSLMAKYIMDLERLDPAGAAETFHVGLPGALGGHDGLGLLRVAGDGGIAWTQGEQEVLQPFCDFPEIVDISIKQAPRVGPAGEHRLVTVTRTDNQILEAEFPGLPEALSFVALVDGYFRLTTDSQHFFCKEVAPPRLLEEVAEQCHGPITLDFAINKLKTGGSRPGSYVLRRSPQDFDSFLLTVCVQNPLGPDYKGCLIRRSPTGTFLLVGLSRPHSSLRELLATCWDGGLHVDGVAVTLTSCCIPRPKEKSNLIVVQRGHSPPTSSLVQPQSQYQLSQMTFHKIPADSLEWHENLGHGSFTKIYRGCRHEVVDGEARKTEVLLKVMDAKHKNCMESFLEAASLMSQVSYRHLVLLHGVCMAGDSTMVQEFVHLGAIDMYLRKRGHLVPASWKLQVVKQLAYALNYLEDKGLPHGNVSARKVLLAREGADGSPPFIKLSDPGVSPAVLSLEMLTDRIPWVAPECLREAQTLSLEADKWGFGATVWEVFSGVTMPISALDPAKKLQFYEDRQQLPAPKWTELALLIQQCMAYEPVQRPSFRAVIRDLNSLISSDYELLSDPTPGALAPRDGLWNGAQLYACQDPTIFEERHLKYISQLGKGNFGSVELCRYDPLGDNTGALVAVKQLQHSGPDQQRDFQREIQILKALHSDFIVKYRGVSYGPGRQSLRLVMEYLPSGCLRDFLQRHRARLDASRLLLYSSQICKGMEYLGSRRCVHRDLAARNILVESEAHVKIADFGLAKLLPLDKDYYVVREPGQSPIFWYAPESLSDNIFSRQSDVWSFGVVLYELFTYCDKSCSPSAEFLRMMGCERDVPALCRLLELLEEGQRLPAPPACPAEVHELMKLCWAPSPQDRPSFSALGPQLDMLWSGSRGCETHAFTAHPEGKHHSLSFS
Experiment: Inhibition of JAK3 (unknown origin)

Question: Which IC50 does the source give for `COc1nn(C)cc1Nc1nccc(-c2c[nH]c3c(NC(=O)[C@@H](C)N4CCN(C)CC4)cccc23)n1` [(2R)-N-(3-{2-[(3-methoxy-1-methyl-1H-pyrazol-4-yl)amino]pyrimidin-4-yl}-1H-indol-7-yl)-2-(4-methylpiperazin-1-yl)propanamide] here?
Answer: > 30 µM
